From patent publication US20240317735A1, “HYDROISOQUINOLINE OR HYDRONAPHTHYRIDINE COMPOUNDS FOR THE TREATMENT OF AUTOIMMUNE DISEASE” (Hoffmann-La Roche Inc., priority 2020, published 2024)

Experiments:
TLR9 = biological target: T1, TLR9 (Homo sapiens, UniProt Q9NR96); assay: HEK293-Blue-hTLR-9 cells assay (SEAP reporter, ODN2006 stimulation); assay type: cell-based; set-up: host or cells: HEK293 (HEK-Blue hTLR9); settings: HEK293-Blue-hTLR9 cells, ODN2006, 20 hrs; read-out: HEK/hTLR9 IC50
T1 sequence (Q9NR96 26-1032): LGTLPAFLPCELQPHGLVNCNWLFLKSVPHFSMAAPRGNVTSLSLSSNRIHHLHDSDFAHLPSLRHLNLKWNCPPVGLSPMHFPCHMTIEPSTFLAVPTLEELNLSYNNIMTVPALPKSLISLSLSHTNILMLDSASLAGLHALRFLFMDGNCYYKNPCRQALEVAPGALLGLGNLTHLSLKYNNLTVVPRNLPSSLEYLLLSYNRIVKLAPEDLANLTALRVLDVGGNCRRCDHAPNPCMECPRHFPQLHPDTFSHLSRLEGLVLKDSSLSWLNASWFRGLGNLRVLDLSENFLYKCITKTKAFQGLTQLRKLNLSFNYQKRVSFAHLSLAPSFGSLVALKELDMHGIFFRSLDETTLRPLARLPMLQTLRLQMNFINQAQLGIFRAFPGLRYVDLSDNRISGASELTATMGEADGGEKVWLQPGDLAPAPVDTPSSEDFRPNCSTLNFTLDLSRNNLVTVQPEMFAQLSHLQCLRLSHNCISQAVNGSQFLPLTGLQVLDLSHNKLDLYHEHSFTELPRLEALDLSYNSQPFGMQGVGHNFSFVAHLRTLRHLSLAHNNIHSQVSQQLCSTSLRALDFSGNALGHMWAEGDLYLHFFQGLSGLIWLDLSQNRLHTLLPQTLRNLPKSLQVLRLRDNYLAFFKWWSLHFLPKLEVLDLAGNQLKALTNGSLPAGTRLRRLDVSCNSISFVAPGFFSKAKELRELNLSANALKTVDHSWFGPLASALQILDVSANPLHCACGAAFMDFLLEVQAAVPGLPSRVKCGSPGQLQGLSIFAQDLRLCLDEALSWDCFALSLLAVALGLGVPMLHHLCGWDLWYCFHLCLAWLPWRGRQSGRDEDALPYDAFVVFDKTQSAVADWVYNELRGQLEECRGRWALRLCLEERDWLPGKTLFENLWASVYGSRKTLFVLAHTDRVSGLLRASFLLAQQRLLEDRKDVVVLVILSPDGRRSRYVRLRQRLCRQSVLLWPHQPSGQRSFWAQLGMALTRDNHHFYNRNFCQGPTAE
Method in brief: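 Antagonist format: cells in DMEM/10% FBS exposed to serially diluted compound (1% DMSO) plus ODN2006 stimulation for 20 h at 37°C. Supernatant SEAP measured with QUANTI-Blue substrate, 2 h at 37°C, absorbance 620–655 nm.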

hERG channel = biological target: T2, hERG channel (Homo sapiens, UniProt Q12809); assay: hERG channel inhibition assay (patch-clamp, CHOhERG cells); assay type: cell-based; settings: for IC50 / IC20: CHOhERG cells, whole-cell patch-clamp; for IC20: human, CHO cells stably expressing hERG (CHOhERG); for hERG IC20/TLR7 IC50 / hERG IC20/TLR8 IC50 / hERG IC20/TLR9 IC50: safety ratio; for hERG IC20/TLR7 IC50: hERG IC20 over HEK/hTLR7 IC50; for hERG IC20/TLR8 IC50: hERG IC20 over HEK/hTLR8 IC50; for hERG IC20/TLR9 IC50: hERG IC20 over HEK/hTLR9 IC50
T2 construct: expressed in transfected cells; host or cells: CHO (CHOhERG)
T2 sequence (Q12809 whole entry): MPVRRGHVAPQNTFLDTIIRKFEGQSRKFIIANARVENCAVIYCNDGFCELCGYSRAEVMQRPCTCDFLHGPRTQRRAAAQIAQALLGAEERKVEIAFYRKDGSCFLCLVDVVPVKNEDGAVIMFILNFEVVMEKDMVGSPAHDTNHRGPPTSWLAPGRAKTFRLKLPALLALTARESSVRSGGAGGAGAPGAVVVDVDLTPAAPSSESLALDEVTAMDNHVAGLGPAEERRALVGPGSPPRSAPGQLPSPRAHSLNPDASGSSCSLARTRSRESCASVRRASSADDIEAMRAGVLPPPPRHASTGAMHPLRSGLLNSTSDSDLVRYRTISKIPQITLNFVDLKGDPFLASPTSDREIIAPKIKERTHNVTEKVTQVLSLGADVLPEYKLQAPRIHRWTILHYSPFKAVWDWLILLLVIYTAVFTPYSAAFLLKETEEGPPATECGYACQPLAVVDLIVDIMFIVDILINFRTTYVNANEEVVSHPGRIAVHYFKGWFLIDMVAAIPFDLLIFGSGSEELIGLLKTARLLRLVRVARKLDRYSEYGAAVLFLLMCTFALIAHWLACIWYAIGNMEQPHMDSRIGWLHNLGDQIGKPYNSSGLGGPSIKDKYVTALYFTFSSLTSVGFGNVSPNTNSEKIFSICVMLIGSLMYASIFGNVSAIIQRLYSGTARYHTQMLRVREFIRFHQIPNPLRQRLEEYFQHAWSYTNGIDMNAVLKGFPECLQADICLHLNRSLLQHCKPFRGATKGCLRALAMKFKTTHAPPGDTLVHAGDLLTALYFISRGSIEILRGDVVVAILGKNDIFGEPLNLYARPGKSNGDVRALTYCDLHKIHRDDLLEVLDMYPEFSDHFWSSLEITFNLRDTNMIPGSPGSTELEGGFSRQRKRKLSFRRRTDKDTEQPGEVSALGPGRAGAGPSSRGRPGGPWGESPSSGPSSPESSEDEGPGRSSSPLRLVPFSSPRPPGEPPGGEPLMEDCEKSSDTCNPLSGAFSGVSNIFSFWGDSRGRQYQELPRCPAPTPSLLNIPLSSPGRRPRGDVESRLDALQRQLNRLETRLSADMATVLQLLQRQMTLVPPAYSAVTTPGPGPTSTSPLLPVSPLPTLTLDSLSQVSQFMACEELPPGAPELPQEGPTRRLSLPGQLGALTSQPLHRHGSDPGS
Method: The hERG K^+ channels were cloned in humans and stably expressed in a CHO (Chinese hamster ovary) cell line. CHOhERG cells were used for patch-clamp (voltage-clamp, whole-cell) experiments. Cells were stimulated by a voltage pattern to activate hERG channels and conduct IKhERG currents (rapid delayed outward rectifier potassium current of the hERG channel). After the cells were stabilized for a few minutes, the amplitude and kinetics of IKhERG were recorded at a stimulation frequency of 0.1 Hz (6 bpm). Thereafter, the test compound was added to the preparation at increasing concentrations. For each concentration, an attempt was made to reach a steady-state effect, usually, this was achieved within 3-10 min at which time the next highest concentration was applied. The amplitude and kinetics of IKhERG are recorded in each concentration of the drug which were compared to the control values (taken as 100%). (references: Redfern W S, Carlsson L, Davis A S, Lynch W G, MacKenzie I, Palethorpe S, Siegl P K, Strang I, Sullivan A T, Wallis R, Camm A J, Hammond T G. 2003; Relationships between preclinical cardiac electrophysiology, clinical QT interval prolongation and torsade de pointes for a broad range of drugs: evidence for a provisional safety margin in drug development. Cardiovasc. Res. 58:32-45, Sanguinetti MC, Tristani-Firouzi M. 2006; hERG potassium channels and cardiac arrhythmia. Nature 440:463-469, Webster R, Leishman D, Walker D. 2002; Towards a drug concentration effect relationship for QT prolongation and torsades de pointes. Curr. Opin. Drug Discov. Devel. 5:116-26).

Row | SMILES | IC50 (TLR9) | IC50 (hERG channel) | IC20 (hERG channel) | hERG IC20/TLR7 IC50 (hERG channel) | hERG IC20/TLR8 IC50 (hERG channel) | hERG IC20/TLR9 IC50 (hERG channel)
1 | CO[C@@H]1CN(c2ccc3c(c2)[C@@H](C)CN(c2ccnc4c2cnn4C)C3)C[C@H]1N [Example 20, (3R,4R)-4-methoxy-1-[(4R)-4-methyl-2-(1-methylpyrazolo[3,4-b]pyridin-4-yl)-3,4-dihydro-1H-isoquinolin-6-yl]pyrrolidin-3-amine] | 0.239 µM | > 20 µM | 6.2 µM | 2066.7 | 364.7 | 25.9
2 | C[C@H]1CN(c2ccnc3c2cnn3C)Cc2ccc(N3CCNCC3)cc21 [Example 1, (4R)-4-methyl-2-(1-methylpyrazolo[3,4-b]pyridin-4-yl)-6-piperazin-1-yl-3,4-dihydro-1H-isoquinoline] | 0.198 µM | > 20 µM | 6.4 µM | 2133.3 | 3200.0 | 32.3
